Biological target: T1, cyt P450 1A1 (Homo sapiens, UniProt P04798)
T1 sequence (P04798 1-512): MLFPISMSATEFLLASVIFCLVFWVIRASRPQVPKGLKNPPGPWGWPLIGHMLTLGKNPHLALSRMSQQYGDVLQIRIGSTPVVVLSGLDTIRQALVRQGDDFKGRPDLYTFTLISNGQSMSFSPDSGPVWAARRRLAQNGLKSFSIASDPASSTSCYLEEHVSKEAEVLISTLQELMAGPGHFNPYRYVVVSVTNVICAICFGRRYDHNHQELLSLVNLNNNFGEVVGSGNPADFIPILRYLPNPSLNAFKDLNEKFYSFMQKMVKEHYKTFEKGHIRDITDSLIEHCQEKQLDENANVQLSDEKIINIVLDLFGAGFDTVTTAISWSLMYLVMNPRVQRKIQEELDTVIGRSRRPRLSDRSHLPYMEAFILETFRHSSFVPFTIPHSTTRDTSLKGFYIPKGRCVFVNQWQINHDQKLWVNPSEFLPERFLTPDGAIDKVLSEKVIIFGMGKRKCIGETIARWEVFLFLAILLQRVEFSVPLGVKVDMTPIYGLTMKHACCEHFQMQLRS
Type: biochemical

## COc1ccc(/C=C/c2cc(O)cc(O)c2)cc1O [rhapontigenin]
  IC50: 32 ± 1 nM

Reference: PMC3901045 (Lab on a chip, 2013)
